In PMC5845353, “The selective cathepsin K inhibitor MIV-711 attenuates joint pathology in experimental animal models of osteoarthritis” (Journal of Translational Medicine, 2018):

Tested on: rabbits subjected to anterior cruciate ligament transection (ACLT)
Assay: Rabbit ACLT study, histomorphometry of bone, cartilage and osteophytes
Type: in vivo
Description: The femora and tibias were decalcified, embedded in paraffin, sectioned at 5-7 µm at two different levels separated by approximately 2 mm, and stained with safranin O and toluidine blue.
Both tibial plateaus and femoral condyles (i.e. four joint compartments) were also subjected to histomorphometric analysis of cartilage, subchondral bone, cancellous bone, and osteophytes. The measurements were made using OsteoMeasureXP version 3.3.0.2 as follows:
Uncalcified cartilage area was measured by tracing the articular surface (cartilage perimeter) and bone or calcified cartilage/uncalcified cartilage interface (cartilage boundary).
Cartilage width was measured by point to point measurement at intersections between a sampling grid with approximately 0.5 mm spacing and the cartilage boundary. The intercepts measured were orthogonal to the cartilage boundary and ended at the cartilage perimeter. At intersections where the cartilage width was zero due to erosion, a value of zero was recorded.
Subchondral bone width was measured by point to point measurement at intersections between a sampling grid with approximately 0.5 mm spacing and the cartilage boundary. The intercepts measured were orthogonal to the cartilage boundary and ended at the first marrow cavity encountered that had at least one dimension approximately equivalent to nearby trabecular thickness.
Osteophyte area was measured for abaxial osteophytes. On the femur, osteophytes associated with the condyles but not with the trochlear grooves were measured.
Bone area (including osteoid) and perimeter were measured in a 3.8 X 1.5 mm ROI centered approximately 1 mm below the bone/cartilage interface. This ROI was intended to be equivalent to the subchondral cancellous bone VOI measured by microCT. Bone volume (BV/TV), trabecular thickness (Tb.Th), trabecular number (Tb.N) and trabecular separation (Tb.Sp) were derived from these measurements using standard formulae.
Slides were evaluated in animal ID order, i.e. in random order with respect to treatment, so that the measurer was effectively blinded to treatment assignment.
Analysis was performed on all four condyles at two levels (Level 1 and 2) for each condyle:
Group 1) sham + vehicle; Group 2) ACLT + vehicle; Group 3) ACLT + MIV-711, 30 µmol/kg (low dose) and Group 4) ACLT + MIV-711, 100 µmol/kg (high dose).

[1] = Level 2, MFC, Group 3: ACLT + MIV-711, 30 µmol/kg (low dose)
[2] = Level 2, MFC, Group 4: ACLT + MIV-711, 100 µmol/kg (high dose)
[3] = Level 2, MTP, Group 3: ACLT + MIV-711, 30 µmol/kg (low dose)
[4] = Level 2, MTP, Group 4: ACLT + MIV-711, 100 µmol/kg (high dose)

C#C[C@@H]1CN(C(=O)[C@H](CC(C)C)NC(=O)c2ccc(-c3nc(N4CCN(C)CC4)sc3F)cc2)[C@@H]2C(=O)CO[C@H]12 [MIV-711]
Tb.Th, Median (Level 1 MFC, Group 4, ACLT + MIV-711 100 µmol/kg): 161.50 µm
BV/TV, Mean (Level 2, LFC, Group 3): 36.23%
BV/TV, Median (Level 2, LFC, Group 3): 35.15%
Cart.Ar, Mean (Level 2, LFC, Group 3): 1.54 mm2
Cart.Ar, Median (Level 2, LFC, Group 3): 1.50 mm2
Cart.Bd, Mean (Level 2, LFC, Group 3): 5.95 mm
Cart.Bd, Median (Level 2, LFC, Group 3): 5.45 mm
Cart.Pm, Mean (Level 2, LFC, Group 3): 6.68 mm
Cart.Pm, Median (Level 2, LFC, Group 3): 6.07 mm
Cart.Wi, Mean (Level 2, LFC, Group 3): 252.24 µm
Cart.Wi, Median (Level 2, LFC, Group 3): 265.00 µm
Ophte.Ar, Mean (Level 2, LFC, Group 3): 1.80 mm2
Ophte.Ar, Median (Level 2, LFC, Group 3): 1.91 mm2
SCB.Wi, Mean (Level 2, LFC, Group 3): 625.26 µm
SCB.Wi, Median (Level 2, LFC, Group 3): 686.73 µm
Tb.N, Mean (Level 2, LFC, Group 3): 2.86 1/mm
Tb.N, Median (Level 2, LFC, Group 3): 3.01 1/mm
Tb.Sp, Mean (Level 2, LFC, Group 3): 227.32 µm
Tb.Sp, Median (Level 2, LFC, Group 3): 224.93 µm
Tb.Th, Mean (Level 2, LFC, Group 3): 129.54 µm
Tb.Th, Median (Level 2, LFC, Group 3): 124.26 µm
BV/TV, Mean (Level 2, LFC, Group 4): 36.75%
BV/TV, Median (Level 2, LFC, Group 4): 38.04%
Cart.Ar, Mean (Level 2, LFC, Group 4): 1.69 mm2
Cart.Ar, Median (Level 2, LFC, Group 4): 1.76 mm2
Cart.Bd, Mean (Level 2, LFC, Group 4): 7.36 mm
Cart.Bd, Median (Level 2, LFC, Group 4): 7.45 mm
Cart.Pm, Mean (Level 2, LFC, Group 4): 8.13 mm
Cart.Pm, Median (Level 2, LFC, Group 4): 8.16 mm
Cart.Wi, Mean (Level 2, LFC, Group 4): 223.79 µm
Cart.Wi, Median (Level 2, LFC, Group 4): 238.09 µm
Ophte.Ar, Mean (Level 2, LFC, Group 4): 4.60 mm2
Ophte.Ar, Median (Level 2, LFC, Group 4): 1.57 mm2
SCB.Wi, Mean (Level 2, LFC, Group 4): 500.70 µm
SCB.Wi, Median (Level 2, LFC, Group 4): 462.81 µm
Tb.N, Mean (Level 2, LFC, Group 4): 3.05 1/mm
Tb.N, Median (Level 2, LFC, Group 4): 2.97 1/mm
Tb.Sp, Mean (Level 2, LFC, Group 4): 212.50 µm
Tb.Sp, Median (Level 2, LFC, Group 4): 210.44 µm
Tb.Th, Mean (Level 2, LFC, Group 4): 120.73 µm
Tb.Th, Median (Level 2, LFC, Group 4): 120.14 µm
BV/TV, Mean (Level 2, LTP, Group 3): 42.02%
BV/TV, Median (Level 2, LTP, Group 3): 40.17%
Cart.Ar, Mean (Level 2, LTP, Group 3): 0.88 mm2
Cart.Ar, Median (Level 2, LTP, Group 3): 0.95 mm2
Cart.Bd, Mean (Level 2, LTP, Group 3): 4.27 mm
Cart.Bd, Median (Level 2, LTP, Group 3): 4.41 mm
Cart.Pm, Mean (Level 2, LTP, Group 3): 4.26 mm
Cart.Pm, Median (Level 2, LTP, Group 3): 4.48 mm
Cart.Wi, Mean (Level 2, LTP, Group 3): 207.98 µm
Cart.Wi, Median (Level 2, LTP, Group 3): 203.75 µm
Ophte.Ar, Mean (Level 2, LTP, Group 3): 1.40 mm2
Ophte.Ar, Median (Level 2, LTP, Group 3): 1.23 mm2
SCB.Wi, Mean (Level 2, LTP, Group 3): 531.17 µm
SCB.Wi, Median (Level 2, LTP, Group 3): 547.82 µm
Tb.N, Mean (Level 2, LTP, Group 3): 2.93 1/mm
Tb.N, Median (Level 2, LTP, Group 3): 3.04 1/mm
Tb.Sp, Mean (Level 2, LTP, Group 3): 202.17 µm
Tb.Sp, Median (Level 2, LTP, Group 3): 206.70 µm
Tb.Th, Mean (Level 2, LTP, Group 3): 146.36 µm
Tb.Th, Median (Level 2, LTP, Group 3): 148.82 µm
BV/TV, Mean (Level 2, LTP, Group 4): 39.84%
BV/TV, Median (Level 2, LTP, Group 4): 38.48%
Cart.Ar, Mean (Level 2, LTP, Group 4): 1.20 mm2
Cart.Ar, Median (Level 2, LTP, Group 4): 1.00 mm2
Cart.Bd, Mean (Level 2, LTP, Group 4): 4.73 mm
Cart.Bd, Median (Level 2, LTP, Group 4): 4.37 mm
Cart.Pm, Mean (Level 2, LTP, Group 4): 5.10 mm
Cart.Pm, Median (Level 2, LTP, Group 4): 4.58 mm
Cart.Wi, Mean (Level 2, LTP, Group 4): 263.50 µm
Cart.Wi, Median (Level 2, LTP, Group 4): 255.71 µm
Ophte.Ar, Mean (Level 2, LTP, Group 4): 1.37 mm2
Ophte.Ar, Median (Level 2, LTP, Group 4): 1.37 mm2
SCB.Wi, Mean (Level 2, LTP, Group 4): 559.05 µm
SCB.Wi, Median (Level 2, LTP, Group 4): 594.94 µm
Tb.N, Mean (Level 2, LTP, Group 4): 2.47 1/mm
Tb.N, Median (Level 2, LTP, Group 4): 2.50 1/mm
Tb.Sp, Mean (Level 2, LTP, Group 4): 250.77 µm
Tb.Sp, Median (Level 2, LTP, Group 4): 246.02 µm
Tb.Th, Mean (Level 2, LTP, Group 4): 161.80 µm
Tb.Th, Median (Level 2, LTP, Group 4): 153.89 µm
BV/TV, Mean (Level 2, MFC, Group 3): 50.84%
BV/TV, Median (Level 2, MFC, Group 3): 46.53%
Cart.Ar, Mean [1]: 1.47 mm2
Cart.Ar, Median [1]: 1.46 mm2
Cart.Bd, Mean [1]: 6.28 mm
Cart.Bd, Median [1]: 6.09 mm
Cart.Pm, Mean [1]: 6.91 mm
Cart.Pm, Median [1]: 6.73 mm
Cart.Wi, Mean [1]: 223.23 µm
Cart.Wi, Median [1]: 234.59 µm
Ophte.Ar, Mean [1]: 2.89 mm2
Ophte.Ar, Median [1]: 3.00 mm2
SCB.Wi, Mean [1]: 694.43 µm
SCB.Wi, Median [1]: 608.27 µm
Tb.N, Mean [1]: 2.80 1/mm
Tb.N, Median [1]: 2.86 1/mm
Tb.Sp, Mean [1]: 174.68 µm
Tb.Sp, Median [1]: 185.17 µm
Tb.Th, Mean [1]: 189.67 µm
Tb.Th, Median [1]: 161.11 µm
BV/TV, Mean (Level 2, MFC, Group 4): 43.61%
BV/TV, Median (Level 2, MFC, Group 4): 41.52%
Cart.Ar, Mean [2]: 1.41 mm2
Cart.Ar, Median [2]: 1.41 mm2
Cart.Bd, Mean [2]: 6.12 mm
Cart.Bd, Median [2]: 6.18 mm
Cart.Pm, Mean [2]: 6.67 mm
Cart.Pm, Median [2]: 6.55 mm
Cart.Wi, Mean [2]: 222.96 µm
Cart.Wi, Median [2]: 218.64 µm
Ophte.Ar, Mean [2]: 2.78 mm2
Ophte.Ar, Median [2]: 2.43 mm2
SCB.Wi, Mean [2]: 570.45 µm
SCB.Wi, Median [2]: 510.39 µm
Tb.N, Mean [2]: 3.01 1/mm
Tb.N, Median [2]: 3.07 1/mm
Tb.Sp, Mean [2]: 189.22 µm
Tb.Sp, Median [2]: 197.91 µm
Tb.Th, Mean [2]: 144.65 µm
Tb.Th, Median [2]: 140.49 µm
BV/TV, Mean [3]: 39.18%
BV/TV, Median [3]: 39.13%
Cart.Ar, Mean [3]: 0.74 mm2
Cart.Ar, Median [3]: 0.67 mm2
Cart.Bd, Mean [3]: 2.32 mm
Cart.Bd, Median [3]: 2.31 mm
Cart.Pm, Mean [3]: 2.43 mm
Cart.Pm, Median [3]: 2.27 mm
Cart.Wi, Mean [3]: 312.01 µm
Cart.Wi, Median [3]: 270.73 µm
Ophte.Ar, Mean [3]: 5.73 mm2
Ophte.Ar, Median [3]: 3.43 mm2
SCB.Wi, Mean [3]: 747.49 µm
SCB.Wi, Median [3]: 739.43 µm
Tb.N, Mean [3]: 2.37 1/mm
Tb.N, Median [3]: 2.27 1/mm
Tb.Sp, Mean [3]: 257.90 µm
Tb.Sp, Median [3]: 251.22 µm
Tb.Th, Mean [3]: 166.79 µm
Tb.Th, Median [3]: 176.63 µm
BV/TV, Mean [4]: 33.87%
BV/TV, Median [4]: 33.99%
Cart.Ar, Mean [4]: 1.78 mm2
Cart.Ar, Median [4]: 0.71 mm2
Cart.Bd, Mean [4]: 2.50 mm
Cart.Bd, Median [4]: 2.18 mm
Cart.Pm, Mean [4]: 2.70 mm
Cart.Pm, Median [4]: 2.14 mm
Cart.Wi, Mean [4]: 282.89 µm
Cart.Wi, Median [4]: 257.34 µm
Ophte.Ar, Mean [4]: 10.32 mm2
Ophte.Ar, Median [4]: 6.59 mm2
SCB.Wi, Mean [4]: 575.52 µm
SCB.Wi, Median [4]: 691.04 µm
Tb.N, Mean [4]: 2.15 1/mm
Tb.N, Median [4]: 1.97 1/mm
Tb.Sp, Mean [4]: 317.92 µm
Tb.Sp, Median [4]: 313.76 µm
Tb.Th, Mean [4]: 160.02 µm
Tb.Th, Median [4]: 151.52 µm
